Assay [1] deals with CD19 and CD40 positive lymphocytes (B cells). The assay can be described thus: depletion of normal B cells from human PBMC cultures. Type of assay: cell-based. To be noted: 1 μg/ml, 24 to 72 hours, FIG. 20C. As to the method:
Human PBMCs were isolated from whole blood by LSM density centrifugation. […] A portion of the incubation reaction was harvested at 48 hours and again at 72 hours after initiation of the experiment. PBMCs were washed and incubated with FITC anti-CD19, FITC anti-CD40, or FITC anti-CD3 for 45 minutes on ice.

In a further assay the target is T1, CD37 (Homo sapiens, UniProt P11049).
T1 sequence (P11049 1-281): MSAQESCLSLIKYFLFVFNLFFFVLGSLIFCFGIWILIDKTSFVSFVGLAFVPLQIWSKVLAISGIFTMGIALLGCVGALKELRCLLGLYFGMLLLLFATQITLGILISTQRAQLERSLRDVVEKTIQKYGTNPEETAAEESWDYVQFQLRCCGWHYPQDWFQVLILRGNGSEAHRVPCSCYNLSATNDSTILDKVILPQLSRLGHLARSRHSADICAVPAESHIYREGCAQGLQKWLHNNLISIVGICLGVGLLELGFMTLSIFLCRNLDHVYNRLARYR
The assay can be described thus: competitive binding / FACs cross blocking of FITC anti-CD37 reagents on BJAB cells. To be noted: unlabeled blocking reagent, FIG. 2. On the set-up: BJAB-cells, a B lymphoblastoid B-cell line, (courtesy of Ed Clark, University of Washington); endogenous in cells; host or cells: BJAB B lymphoblastoid cell line. The protocol: FITC labeled antibody conjugates were titrated from 10 μg/mL to 10 pg/mL in an initial binding study to determine the optimal amounts to use in the blocking studies. The level chosen was just below saturating amounts, and was kept constant in the subsequent assays, while levels of blocking antibody were increased over a 10-fold range. Data were plotted as percent of maximal binding versus concentration of blocking antibody, so that higher levels indicate less efficient blocking, while lower levels indicate more efficient blocking activity.
BJAB-cells, a B lymphoblastoid B-cell line, (courtesy of Ed Clark, University of Washington) were then stained with a panel of various clones of anti-CD37 MAbs, including MB371, BL14, NMN46, IPO24, HH1, WR17, and the TRU-016 SMIP.
For competitive binding assays, 2.5×10^5 BJAB cells were incubated in 96-well V-bottom plates in staining media (PBS with 2% mouse sera) with the FITC-conjugated anti-CD37 MAbs at 1.25 μg/mL in the presence of unconjugated anti-CD37 MAb at the indicated concentrations (2.5, 1.25, 0.6, or 0.3 μg/ml) or staining media for 45 minutes on ice in the dark. Blocking antibodies and FITC labeled antibody conjugates were added to reactions prior to addition of cells. […] The cells were analyzed by flow cytometry using a FACsCalibur instrument and CellQuest software (BD Biosciences, San Jose, Calif.). […]

Another assay relates to Ramos cells. Put plainly: Annexin V/PI apoptosis analysis, Ramos. Type of assay: cell-based, human. Particulars: 24 hours, TRU-016 10 μg/mL (unfractionated). The protocol: Experiments examining the effect of B cell targeted SMIPS on B cell line apoptosis were performed. Each SMIP was tested individually and then in combination. Samples were analyzed at both 24 and 48 hours after initiation of incubation reactions. […] In addition, 20 μg/mL goat anti-human IgG was added to reactions in order to cross link reagents on the cell surface. Cells were then stained with Annexin V-FITC and propidium iodide using the BD Pharmigen Apoptosis Detection Kit I (#556547), and processed according to kit instructions. Briefly, cells were washed twice with cold PBS and resuspended in “binding buffer” at 1×10^6 cells/mL. One hundred microliters of the cells in binding buffer were then stained with 5 μl of Annexin V-FITC and 5 μl of propidium iodide. The cells were gently vortexed and incubated in the dark at room temperature for 15 minutes. Four hundred microliters of binding buffer was then added to each sample. They were then read and analyzed on a FACsCalibur (Becton Dickinson) instrument using Cell Quest software (Becton Dickinson).
Similar data were obtained whether Ramos or BJAB cells were used as the binding targets in these assays.

The next assay has as its system Ramos B cells. Put plainly: CDC assay, Ramos B cells with human serum complement, propidium iodide. The assay is classed as cell-based. To be noted: Ramos B cells, human serum. As to the method: (§1) The cells were incubated 60 minutes at 37° C. […] Samples were incubated 15 minutes at room temperature in the dark prior to analysis by flow cytometry using a FACsCalibur and CellQuest software (Becton Dickinson).
as §1

Consider “G28-1 scFv VH11S(SSC—P)H WCH2 WCH3 [TRU-016]”, for which the “depletion of B lymphocytes compared to T lymphocytes” value in assay [1] is listed as “capable of specific depletion of CD37 positive B lymphocytes”. The “blocking activity (inhibition of binding of FITC anti-CD37 conjugates)” value with CD37 is reported as “highest level of blocking activity”. For the same substance, in the assay with Ramos cells (8.5% before), the “% of annexin V positive-PI negative cells” value is reported as 19.7%. The “% of annexin V-PI double positive cells” value with Ramos cells (11.3% before) amounted to 32.8%. Moreover, the “CDC activity with human complement, single reagent” value in the assay with Ramos B cells is “fails to mediate CDC unless aggregates are present”.

Source of the values: patent US10143748B2, “B-cell reduction using CD37-specific and CD20-specific binding molecules” (Emergent Product Development Seattle, LLC, priority 2005, dated 2018).
